Experimental data as given in ChEMBL document CHEMBL5518228, “DNA Interaction and Cleavage Modes of Anthraquinone-Fused Enediynes: A Study on Tiancimycins, Yangpumicins, and Their Semisynthetic Analogues” (J Med Chem, 2024).
Activity calls are given as the source filed them. The calls are words filed in the database; no cut-off is given here.

Tests used:
Jurkat = experiment: Cytotoxicity against human Jurkat cells incubated for 72 hrs by CCK-8 assay; format: functional, cell-based
A549 = experiment: Cytotoxicity against human A549 cells incubated for 72 hrs by CCK-8 assay; format: functional, cell-based; settings: A549, 72 h
Caco-2 = experiment: Cytotoxicity against human Caco-2 cells incubated for 72 hrs by CCK-8 assay; format: functional, cell-based; settings: Caco-2, 72 h
[1] = Cytotoxicity against human KPL-4 cells incubated for 72 hrs by CCK-8 assay; format: functional, cell-based; settings: KPL4, 72 h
[2] = Cytotoxicity against human NCM460 cells incubated for 72 hrs by CCK-8 assay; format: toxicity, cell-based
[3] = Cytotoxicity against human HUVEC cells incubated for 72 hrs by CCK-8 assay; format: toxicity, cell-based
Supercoiled DNA [4] = experiment: Induction of supercoiled pBR322 DNA (unknown origin) cleavage assessed as relaxation of supercoiled plasmid incubated for 1 hr in presence of DTT by SYBR I Green staining based agarose gel electrophoresis analysis; format: nucleic-acid assay
KPL-4 [5] = experiment: Antitumor activity against human KPL-4 cells xenografted with BALB/c mouse assessed as reduction in tumor mass at 0.05 mg/kg,iv administrated once per week for 2 weeks; format: functional, organism-based
KPL-4 [6] = experiment: Antitumor activity against human KPL-4 cells xenografted with BALB/c mouse assessed as reduction in tumor mass at 0.2 mg/kg,iv administrated once per week for 2 weeks; format: functional, organism-based
[7] = Toxicity in BALB/c mouse xenografted with human KPL-4 cells assessed as body weight loss at 0.2 mg/kg,iv administrated once per week for 2 weeks; format: organism-based; settings: in vivo, 336 h
[8] = Toxicity in BALB/c mouse xenografted with human KPL-4 cells assessed as pathological damage in heart at 0.05 mg/kg,iv administrated once per week for 2 weeks by H and E staining based analysis; format: organism-based; settings: in vivo, 336 h
[9] = Toxicity in BALB/c mouse xenografted with human KPL-4 cells assessed as pathological damage in heart at 0.2 mg/kg,iv administrated once per week for 2 weeks by H and E staining based analysis; format: organism-based; settings: in vivo, 336 h
[10] = Toxicity in BALB/c mouse xenografted with human KPL-4 cells assessed as pathological damage in liver at 0.05 mg/kg,iv administrated once per week for 2 weeks by H and E staining based analysis; format: organism-based; settings: in vivo, 336 h
[11] = Toxicity in BALB/c mouse xenografted with human KPL-4 cells assessed as pathological damage in liver at 0.2 mg/kg,iv administrated once per week for 2 weeks by H and E staining based analysis; format: organism-based; settings: in vivo, 336 h
[12] = Toxicity in BALB/c mouse xenografted with human KPL-4 cells assessed as pathological damage in lung at 0.05 mg/kg,iv administrated once per week for 2 weeks by H and E staining based analysis; format: organism-based; settings: in vivo, 336 h
[13] = Toxicity in BALB/c mouse xenografted with human KPL-4 cells assessed as pathological damage in lung at 0.2 mg/kg,iv administrated once per week for 2 weeks by H and E staining based analysis; format: organism-based; settings: in vivo, 336 h
[14] = Toxicity in BALB/c mouse xenografted with human KPL-4 cells assessed as pathological damage in spleen at 0.05 mg/kg,iv administrated once per week for 2 weeks by H and E staining based analysis; format: organism-based; settings: in vivo, 336 h
[15] = Toxicity in BALB/c mouse xenografted with human KPL-4 cells assessed as pathological damage in spleen at 0.2 mg/kg,iv administrated once per week for 2 weeks by H and E staining based analysis; format: organism-based; settings: in vivo, 336 h
[16] = Toxicity in BALB/c mouse xenografted with human KPL-4 cells assessed as pathological damage in kidney at 0.05 mg/kg,iv administrated once per week for 2 weeks by H and E staining based analysis; format: organism-based; settings: in vivo, 336 h
[17] = Toxicity in BALB/c mouse xenografted with human KPL-4 cells assessed as pathological damage in kidney at 0.2 mg/kg,iv administrated once per week for 2 weeks by H and E staining based analysis; format: organism-based; settings: in vivo, 336 h
Supercoiled DNA [18] = experiment: Induction of supercoiled pBR322 DNA (unknown origin) cleavage at 50 uM incubated for 1 hr in presence of NADPH by agarose gel electrophoresis analysis; format: nucleic-acid assay
Supercoiled DNA [19] = experiment: Induction of supercoiled pBR322 DNA (unknown origin) cleavage at 50 uM incubated for 1 hr in presence of DTT by agarose gel electrophoresis analysis; format: nucleic-acid assay
Supercoiled DNA [20] = experiment: Induction of supercoiled pBR322 DNA (unknown origin) cleavage at 50 uM incubated for 1 hr in presence of GSH by agarose gel electrophoresis analysis; format: nucleic-acid assay
Supercoiled DNA [21] = experiment: Induction of supercoiled pBR322 DNA (unknown origin) cleavage at 50 uM incubated for 1 hr under pH 5.5 to 6.5 condition by agarose gel electrophoresis analysis; format: nucleic-acid assay
Supercoiled DNA [22] = experiment: Induction of supercoiled pBR322 DNA (unknown origin) cleavage at 50 uM incubated for 1 hr under pH 5.5 to 9.5 condition by agarose gel electrophoresis analysis; format: nucleic-acid assay
Supercoiled DNA [23] = experiment: Induction of supercoiled pBR322 DNA (unknown origin) cleavage at 50 uM incubated for 1 hr in presence of catalase under pH 7.4 condition by agarose gel electrophoresis analysis; format: nucleic-acid assay
Supercoiled DNA [24] = experiment: Induction of supercoiled pBR322 DNA (unknown origin) cleavage at 50 uM incubated for 1 hr in presence of DTT under pH 7.4 condition by agarose gel electrophoresis analysis; format: nucleic-acid assay
Supercoiled DNA [25] = experiment: Induction of supercoiled pBR322 DNA (unknown origin) cleavage at 50 uM incubated for 1 hr in presence of pyridine under pH 7.4 condition by agarose gel electrophoresis analysis; format: nucleic-acid assay
Supercoiled DNA [26] = experiment: Induction of supercoiled pBR322 DNA (unknown origin) cleavage at 50 uM incubated for 1 hr in presence of adriamycin by agarose gel electrophoresis analysis; format: nucleic-acid assay
Supercoiled DNA [27] = experiment: Induction of supercoiled pBR322 DNA (unknown origin) cleavage at 50 uM incubated for 1 hr in presence of actinomycin D by agarose gel electrophoresis analysis; format: nucleic-acid assay
Supercoiled DNA [28] = experiment: Induction of supercoiled pBR322 DNA (unknown origin) cleavage at 50 uM incubated for 1 hr in presence of bleomycin by agarose gel electrophoresis analysis; format: nucleic-acid assay
Supercoiled DNA [29] = experiment: Induction of supercoiled pBR322 DNA (unknown origin) cleavage at 50 uM incubated for 1 hr in presence of bleomycin and ferrous ion by agarose gel electrophoresis analysis; format: nucleic-acid assay
DNA = experiment: Induction of duplex DNA (unknown origin) cleavage assessed as DNA cleaved fragments at AT-rich region at 1 mM incubated for 6 hr in presence of DTT by agarose gel electrophoresis analysis; format: nucleic-acid assay
Calf thymus DNA [30] = experiment: Binding affinity to calf thymus DNA assessed as change in gibbs free energy in presence of ethidium bromide by competitive binding based fluorescence spectroscopic analysis; format: nucleic-acid assay; settings: Bos taurus
Calf thymus DNA [31] = experiment: Binding affinity to calf thymus DNA assessed as DNA insertion by measuring change in gibbs free energy by fluorescence spectroscopic analysis; format: nucleic-acid assay; settings: Bos taurus
Calf thymus DNA [32] = experiment: Binding affinity to calf thymus DNA assessed as DNA insertion by measuring change in gibbs free energy in presence of triggered form of compound by fluorescence spectroscopic analysis; format: nucleic-acid assay; settings: Bos taurus

EC50 (Supercoiled DNA [4]): 17.3 nM
Activity (Supercoiled DNA [18]): inactive
Activity (Supercoiled DNA [19]): Active
Activity (Supercoiled DNA [20]): inactive
Activity (Supercoiled DNA [21]): inactive
Activity (Supercoiled DNA [22]): Active
Activity (Supercoiled DNA [23]): inactive
Activity (Supercoiled DNA [24]): inactive
Activity (Supercoiled DNA [25]): inactive
Activity (Supercoiled DNA [26]): inactive
Activity (Supercoiled DNA [27]): inactive
Activity (Supercoiled DNA [28]): Active
Activity (Supercoiled DNA [29]): Active
Activity (DNA): inactive
deltaG (Calf thymus DNA [30]): -7.98 kcal/mol
deltaG (Calf thymus DNA [31]): -23.8 kcal/mol
deltaG (Calf thymus DNA [32]): -18.1 kcal/mol
Compound: COc1ccc2c(c1OC)C(=O)c1c3c(cc(O)c1C2=O)[C@@]12O[C@@]1([C@@H](C)O)[C@H](C#C/C=C\C#C[C@H]2O)N3
IC50 (Jurkat): 0.1 nM
IC50 (A549): 1.3 nM
IC50 (Caco-2): 37.9 nM
IC50 [1]: 0.1 nM
IC50 at 72 h [2]: 6 nM
IC50 at 72 h [3]: 6.8 nM
Activity (KPL-4 [5]): Active
Activity (KPL-4 [6]): Active
Activity [7]: Non-Toxic
Activity [8]: Non-Toxic
Activity [9]: Non-Toxic
Activity [10]: Non-Toxic
Activity [11]: Non-Toxic
Activity [12]: Non-Toxic
Activity [13]: Non-Toxic
Activity [14]: Non-Toxic
Activity [15]: Non-Toxic
Activity [16]: Non-Toxic
Activity [17]: Non-Toxic
